Results as given in US9321796B2, “Galactopyranosyl derivatives useful as medicaments” (Universiteit Gent, priority 2012, dated 2016).

Columns and labels:
[1] = tested on: collagen-induced arthritis (CIA) and experimental auto-immune encephalomyelitis (EAE); details: CIA and EAE in mice; cited from earlier work
iNKT cells [2] = assay: In vivo activation of iNKT cells: serum cytokines after intraperitoneal glycolipid injection; set-up: species or system C57BL/6 mice; details: 16 hours after intraperitoneal injection of 5 μg glycolipid
Experimental: Glycolipids from this invention were synthesized according to the procedure of example 1. α-C-GalCer was kindly provided by Aaron Diamond AIDS Research Center (New York, USA) and the NIH Tetramer Core Facility. Lyophilized glycolipids were dissolved in pure dimethylsulfoxide (DMSO) (Sigma) at a 10 mg/mL concentration and stored at −20° C. Glycolipids were solubilized by adding phosphate buffer saline (PBS) (Invitrogen) or a standard vehicle (96 mg/mL sucrose, 10 mg/mL sodium deoxycholate, 0,05% Tween 20), warming to 80° C. for 20 minutes, and then sonication for 10 minutes.
(§1) For in vivo activation of iNKT cells C57BL/6 mice were either intraperitoneally injected with 5 μg glycolipid (dissolved in PBS) or intravenously with 6·10^5 or 1·10^4 glycolipid pulsed BMDCs.
In order to assess the antigenicity of the carbamate-containing galactopyranosyl compounds of example 1 and their ability to induce Th1-skewing, mice were bled at 16 hours after intraperitoneal glycolipid exposure because this is known to afford peak levels of IFN-y, the hallmark Th1 cytokine. […] IFN-y production in response to glycolipid dependent iNKT cell activation is known to be dependent on IL-12^10-12, which was therefore analyzed.

[3] = molecular target: T1, TCR / mCD1d-glycolipid complex (Mus musculus, UniProt P11609); assay: Surface plasmon resonance: TCR binding to mCD1d-glycolipid complexes; details: SPR, 25° C., Langmuir 1:1 model; read-out: KD
T1 sequence (P11609 19-297): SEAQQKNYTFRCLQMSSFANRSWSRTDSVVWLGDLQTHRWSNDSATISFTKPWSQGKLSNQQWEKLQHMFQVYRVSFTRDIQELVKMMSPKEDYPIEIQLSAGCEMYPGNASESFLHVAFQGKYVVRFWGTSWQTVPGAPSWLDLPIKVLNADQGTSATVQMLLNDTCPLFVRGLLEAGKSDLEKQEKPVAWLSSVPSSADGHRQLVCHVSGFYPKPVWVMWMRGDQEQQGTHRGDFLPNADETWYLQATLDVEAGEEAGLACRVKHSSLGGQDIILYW
T1 sequence (P01887 21-119 partner): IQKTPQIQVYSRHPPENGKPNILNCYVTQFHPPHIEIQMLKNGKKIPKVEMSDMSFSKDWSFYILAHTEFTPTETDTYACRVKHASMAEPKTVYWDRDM
Experimental: SPR studies were conducted using a Biacore 3000 (Biacore). Glycolipids were dissolved at 1 mg/ml in DMSO and before loading were diluted to 0.25 mg/ml with vehicle solution (50 mM Tris-HCl pH 7.0, 4.8 mg/ml sucrose, 0.5 mg/ml deoxycholate and 0.022% Tween-20), heated for 20 minutes at 80° C. After cooling 1 μg of each lipid was incubated with 10 μg enzymatically biotinylated mCD1d overnight at room temperature. In one embodiment, 400-600 response units (RU) of mCD1d-glycolipid complexes were immobilized onto a CA capture chip (Biacore). A reference surface was generated in another flow channel with unloaded mCD1d immobilized at RU of 500. During the association phase, a series of increasing concentrations of TCR (in 10 mM HEPES, 150 mM NaCl, 3.0 mM EDTA, pH 7.4) in duplicate were injected for 80 seconds and the dissociation phase (running buffer only) was monitored over 45 minutes. Experiments were carried out at 25° C. with a flow rate of 30 μl/min and performed at least two to three times, each time with a different batch of TCR preparation. Kinetic parameters were calculated after subtracting the response to mCD1d molecules in the reference channel, using a simple Langmuir 1:1 model in the BIA evaluation software version 4.1. One representative sensorgram for each lipid is shown. […]

iNKT cells [4] = assay: In vivo cytokine secretion after intravenous injection of glycolipid-pulsed BMDC; set-up: species or system C57BL/6 mice
Experimental: as §1
(§2) Next we examined if the glycolipid pulsed BMDC behave similarly in vivo. For cytokine analysis we bled the mice at several time points after injection. We focused on IFN-γ and IL-12 secretion.
(§3) In order to determine if the new glycolipids can also mimic the anti-metastatic activity of NU-α-GalCer, we examined them in the B16 lung melanoma model. […] As little as 10,000 pulsed BMDC were enough to exert this marked tumor response. To analyze if these anti-tumor results still correspond to strong cytokine responses mice were bled 16 hours after injection of 10,000 pulsed bone marrow dendritic cells. […] Strikingly, the IL-12 results were not different between the 2 doses in contrast to the IFN-γ production, which was more dose-dependent (FIG. 9). This might indicate that other cytokines such as IL-18, which is also necessary for the induction of IFN-γ by NK cells might play an additional role in iNKT cell dependent Th1 polarization.

human iNKT cells = assay: Cytokine secretion in cultures of purified human iNKT cells; assay type: cell-based; details: glycolipid 100 ng/ml pulsed PBMCs, 24 hours
Experimental: Human iNKT cells from healthy adult individuals were sorted and expanded. PBMCs were isolated by means of density centrifugation, incubated overnight in the presence of indicated glycolipids (100 ng/ml), washed and irradiated (40 Gy). Subsequently, 5×10^4 iNKT cells were stimulated with 10^5 glycolipid pulsed autologous PBMCs in RPMI 1640 media supplemented with 10% human AB serum (Lonza), 1% sodium pyruvate, 1% nonessential amino acids and 1% penicillin/streptomycin (all from Invitrogen). Supernatants were collected after 24 hours of culture and cytokine levels were determined by means of cytometric Bead Arrays (CBA) following the manufacturer's instructions (BD).
as §2

B16 melanoma cells = assay: B16 melanoma lung metastasis model with glycolipid-loaded BMDC; assay type: in vivo, mice; details: 10,000 glycolipid pulsed BMDC
Experimental: (§4) The murine iNKT hybridoma N38-2C12 (Vα14Vβ8.1/8.2b) was provided by Brown University, Providence, Rhode Island, USA). Cells were cultured in DMEM Sigma) supplemented with 10% fetal calf serum (Invitrogen), 1% glutamine (Sigma), 1% penicillin streptomycin (Sigma), and 2-mercapto-ethanol (Sigma) (hereinafter called cDMEM). B16 melanoma cells were cultured in advanced RPMI (Sigma) supplemented with 10% fetal calf serum (Invitrogen), 1% glutamine (Sigma) and 1% penicillin streptomycin (Sigma). They were harvested using cell dissociation buffer, which was washed away twice first using the medium and second with PBS. 400,000 cells were intravenously (IV) injected within 30 minutes after harvest into the tail vein.
as §3, with “This might indicate that other cytokines such as IL-18, which is also necessary for the induction of IFN-γ by NK cells might play an additional role in iNKT cell dependent Th1 polarization.” left out

[5] = tested on: spleen DCs (CD11c CD11b double positive); assay: Co-stimulatory molecule expression on spleen dendritic cells after glycolipid-pulsed BMDC; assay type: in vivo, C57/BL6 mice; details: 600000 glycolipid-pulsed BMDC
Text: Spleen cells were isolated. Lymphocytes were isolated at the interface and washed, depleted with an anti-CD3 kit (Miltenyi Biotec, Sunnyvale, […]) and re-suspended in a staining buffer containing saturating amount of anti-Fcy Receptor type II/type III monoclonal antibodies (Miltenyi). Hereafter cells were stained with fluorochrome-conjugated mAbs (all from Bioscience) directed against the described antigens. Live cells (exclusion with DAPI) were acquired on a FACSCanto (BD) flow cytometer and analyzed using FlowJo (Tree Star) software.
Expression of co-stimulatory markers at the cell surface is linked to cytokine polarization because this determines the degree of activation of by-stander cells such as NK cells, whose IFN-y production is responsible for Th1 polarized cytokine profile. For α-C-GalCer, it has been shown that expression of CD40 is essential for IL-12 and subsequent NK cell dependent IFN-γ production. In contrast, OCH, a Th2 polarizing antigen, is not able to induce CD40 expression at the surface of DCs. Additionally OX40L up-regulation by dendritic cells (DC) has been found important for α-GalCer dependent tumour killing.
Glycolipid stimulation of iNKT cells leads to CD28 expression, and induces CD80 and CD86 expression at the dendritic cell surface, which is required for induction of IL-12 by dendritic cells. […]

[6] = tested on: murine iNKT hybridoma N38-2C12; assay: Co-culture of glycolipid-pulsed BMDC with iNKT cell hybridoma 2C12, IL-2 by ELISA; assay type: cell-based; details: BMDC loaded 20 hours with 100 ng/mL glycolipid, 16 hours co-culture with 2C12 cells
Experimental: as §4
For in vitro stimulation, murine iNKT hybridoma cells at 5·10^4 cells/well in 96-well plates were stimulated with the 10^5 cells/well glycolipid pulsed BMDCs in cDMEM for 4, 16 or 24 hours at […], and levels of murine IL-2 secretion were determined by ELISA.
iNKT cell polarization is a matter of debate and it has been shown uptake by different cells can also affect the outcome. To avoid these host dependent parameters we set up a simple in vitro model, which consists of co-cultures of glycolipid-pulsed bone marrow dendritic cells and an iNKT cell hybridoma (i.c. 2C12 containing a Vβ8.2 TCR). IL-2 production is used as a read-out for TCR affinity for the whole CD1d-glycolipid complex. […] To confirm this we also measured intracellular IL-2 production in 2C12 cells already 4 hours after coculture, where a similar result was obtained (FIG. 2). Because IL-2 production is a downstream event of TCR signaling we analyzed TCRβ expression.
In order to assess the antigenic activity of the triazolyl-containing galactopyranosyl compounds of example 10, bone marrow dendritic cells (BMDC) were loaded during 20 hours with 100 ng/mL glycolipid. After 16 hours of co-culture with 2C12 cells (iNKT cell hybridoma), IL-2 secretion was determined by ELISA.

[7] = 16 hours after injection of 10,000 pulsed BMDC

In the case of `CCCCCCCCCCCCCCCCCCCCCCCC(=O)N[C@@H](COC1OC(CO)C(O)C(O)C1O)[C@H](O)[C@H](O)CCCCC` (some centres unmarked) [OCH], the “effect on Th1-mediated auto-immune diseases” value [1] is given as “protective effect”.

For `CCCCCCCCCCCCCCCCCCCCCCCCCC(=O)NC(COC1OC(COC(=O)Nc2ccncc2)C(O)C(O)C1O)C(O)C(O)CCCCCCCCCCCCCC` [PyrC-α-GalCer, (2S,3S,4R)-1-O-(6-O-(4pyridinylcarbamoyl)-α-D-galactopyranosyl)-2-hexa-cosylamino-octadecane-1,3,4-triol], the IL-12 production (iNKT cells [2]) was “significantly higher IL-12 levels than NU-α-GalCer”, the Kd [3] was 33 nM and the IFN-γ production (iNKT cells [4]; [7]) was “significantly higher”. The IL-12 production (iNKT cells [4]; [7]) was “significantly higher”, the “IL-12 secretion after 24 hours” value (iNKT cells [4]; 24 hours after injection of glycolipid pulsed BMDC) was “markedly higher than for NU-α-GalCer” and the IL-12 secretion (iNKT cells [4]; after injection of glycolipid pulsed BMDC) was “very high”. For the same compound, the “IFN-γ level time course” value (iNKT cells [4]; several time points after injection of glycolipid pulsed BMDC) was “increased up to 24 hours after injection”, the “Th1-biased cytokine secretion (more IFN-γ and IL-12 and less IL-4 and IL-13 compared to α-GalCer)” value (human iNKT cells) was “able to induce Th1-biased cytokine secretion” and the “prevention of tumor metastasis (lung nodules)” value (B16 melanoma cells) was “still better in preventing tumor metastasis”. For the same compound, the “CD40 up-regulation on spleen DCs” value [5] was “induces early CD40 up-regulation”.

For “(2S,3S,4R)-1-O-(6-deoxy-6-(4-butyltriazol-1-yl)-α-D-galactopyranosyl)-2-hexacosylamino-octadecane-1,3,4-triol [Compound 44]”, the IL-2 secretion [6] was “tend to induce the highest IL-2 secretion”.

In the case of “(2S,3S,4R)-1-O-(6-deoxy-6-(4-phenyltriazol-1-yl)-α-D-galactopyranosyl)-2-hexacosylamino-octadecane-1,3,4-triol [Compound 45]”, the IL-2 secretion [6] is reported as “tend to induce the highest IL-2 secretion”.

For “(2S,3S,4R)-1-O-(6-deoxy-6-(triazol-1-yl)-α-D-galactopyranosyl)-2-hexacosylamino-octadecane-1,3,4-triol [non-substituted triazolyl compound]”, the IL-2 secretion [6] was “even better in stimulating iNKT cells to release IL-2”.
